# Data reported in DBAASP.
# Values joined by “and” are separate entries in the source; they are usually repeats but may differ in a detail not shown here. Equal entries are not always repeated.
# Columns and labels:
# Test in all cases: ≥ marks a high value that may be exact or a test limit, other limits are often not marked, values filed in µg/mL are converted to µM
# [1] = tested on: Escherichia coli
# [2] = tested on: Candida albicans ATCC 90028
# [3] = tested on: Micrococcus luteus
# [4] = tested on: Leuconostoc lactis
# [5] = tested on: Candida krusei ATCC 6258
# [6] = tested on: Batrachochytrium dendrobatidis
# [7] = tested on: Candida parapsilosis ATCC 22019
# [8] = tested on: Candida albicans SC5314
# [9] = tested on: Pasteurella multocida
# [10] = tested on: Staphylococcus epidermidis
# [11] = tested on: Listeria innocua
# [12] = tested on: Staphylococcus aureus
# [13] = tested on: Bacillus cereus
# [14] = tested on: Streptococcus uberis
# [15] = tested on: Bacillus subtilis 168 HT
# [16] = tested on: Escherichia coli MG1655
# [17] = tested on: Acinetobacter baumannii KCTC 2508
# [18] = tested on: Bacillus subtilis KCTC 2217
# [19] = tested on: Staphylococcus aureus ATCC 25923
# [20] = tested on: Cutibacterium acnes JCM 6473
# [21] = tested on: Candida albicans NBRC 1385
# [22] = tested on: Streptococcus mutans JCM 5705
# [23] = tested on: Porphyromonas gingivalis ATCC 33277
# [24] = tested on: Staphylococcus aureus ATCC 29213
# [25] = tested on: Klebsiella pneumoniae ATCC 13866
# [26] = tested on: Escherichia coli ATCC 35218
# [27] = tested on: Staphylococcus aureus ATCC 33591
# [28] = tested on: Escherichia coli ATCC 11229
# [29] = tested on: Staphylococcus epidermidis ATCC 12228
# [30] = tested on: Pseudomonas aeruginosa ATCC 27853
# [31] = tested on: Escherichia coli NCTC 10418
# [32] = tested on: Staphylococcus aureus NCTC 10788
# [33] = tested on: Candida albicans NCPF 1467
# [34] = tested on: Escherichia coli ATCC 25922
# [35] = tested on: Staphylococcus aureus ATCC 2592
# [36] = tested on: Bacillus subtilis
compound,measurement,setting,value
CC[C@H](C)[C@H](NC(=O)[C@@H](NC(=O)CN)C(C)C)C(=O)N[C@@H](CC(=O)O)C(=O)N[C@@H](C)C(=O)N[C@@H](C)C(=O)N[C@@H](CCCCN)C(=O)N[C@@H](CCCCN)C(=O)N[C@@H](Cc1c[nH]c2ccccc12)C(=O)N[C@@H](CC(N)=O)C(=O)N[C@H](C(=O)N[C@@H](CC(C)C)C(=O)N[C@@H](CCCCN)C(=O)N[C@@H](CC(N)=O)C(=O)N[C@@H](CC(C)C)C(=O)N[C@@H](Cc1ccccc1)C(N)=O)C(C)C [GVIDAAKKVVNVLKNLF],MIC,[1],54.7 µM
same,MIC,[2],≥ 70 µM
same,MIC,[3],27.3 µM
same,MIC,[4],1.64 µM
same,MIC,[5],≥ 35 µM
same,MIC,[6],≥ 100 µM
same,MIC,[7],≥ 70 µM
same,MIC,[8],≥ 35 µM
same,MIC,[9],27.3 µM
same,MIC,[10],6.56 µM
same,MIC,[11],27.3 µM
same,MIC,[12],13.7 µM
same,MIC,[13],13.7 µM
same,MIC,[14],6.56 µM
CC[C@H](C)[C@H](NC(=O)[C@H](CC(C)C)NC(=O)[C@@H](N)CS)C(=O)N[C@@H](CCSC)C(=O)N[C@@H](CCCCN)C(=O)N[C@H](C(=O)N[C@@H](CCCN=C(N)N)C(=O)N[C@@H](CCCN=C(N)N)C(=O)N[C@@H](CCCCN)C(=O)N[C@@H](CCCCN)C(=O)O)C(C)C [CLIMKVRRKK],MIC,[15],12.6 µM
same,MIC,[16],≥ 100 µM
CC(C)C[C@H](NC(=O)[C@H](CCCCN)NC(=O)[C@H](CCCCN)NC(=O)[C@H](CC(C)C)NC(=O)[C@H](CC(C)C)NC(=O)[C@H](CCCCN)NC(=O)[C@H](CCCCN)NC(=O)[C@H](CC(C)C)NC(=O)[C@H](CC(C)C)NC(=O)[C@@H]1CCCN1C(=O)[C@H](CCCCN)NC(=O)[C@H](CCCCN)NC(=O)[C@H](CC(C)C)NC(=O)[C@@H](N)CC(C)C)C(N)=O [LLKKPLLKKLLKKL],MIC,[17],12.5 µM
same,MIC,[18],1.56 µM
same,MIC,[19],1.56 µM and > 0.78 µM
CC[C@H](C)[C@H](NC(=O)[C@@H](N)CCCN=C(N)N)C(=O)N[C@@H](CCCN=C(N)N)C(=O)N[C@@H](CC(C)C)C(=O)N[C@@H](CC(C)C)C(=O)N[C@@H](CCC(N)=O)C(=O)N[C@@H](CCCN=C(N)N)C(=O)N[C@@H](Cc1ccccc1)C(=O)N[C@@H](CC(N)=O)C(=O)N[C@@H](CCCCN)C(=O)N[C@@H](CCCN=C(N)N)C(=O)O [RIRLLQRFNKR],MIC,[20],≥ 1020 µM
same,MIC,[21],≥ 512 µM
same,MIC,[22],≥ 1020 µM
same,MIC,[23],≥ 256 µM
C[C@@H](O)[C@H](NC(=O)[C@H](CCCCN)NC(=O)[C@H](CCCCN)NC(=O)[C@H](CO)NC(=O)[C@H](CCCN=C(N)N)NC(=O)[C@H](Cc1c[nH]c2ccccc12)NC(=O)[C@H](CCC(=O)O)NC(=O)[C@H](CCCN=C(N)N)NC(=O)[C@H](CO)NC(=O)[C@H](CCCCN)NC(=O)[C@@H](N)CCCN=C(N)N)C(=O)N[C@@H](CCC(N)=O)C(=O)N1CCC[C@H]1C(=O)N[C@@H](CCCN=C(N)N)C(=O)N[C@@H](CCCN=C(N)N)C(=O)N1CCC[C@H]1C(=O)N[C@@H](CCCN=C(N)N)C(=O)O [RKSREWRSKKTQPRRPR],MIC,[20],≥ 1020 µM
same,MIC,[21],≥ 1020 µM
same,MIC,[22],≥ 1020 µM
same,MIC,[23],≥ 1020 µM
CC[C@H](C)[C@H](NC(=O)[C@@H](NC(=O)[C@H](CO)NC(=O)CN)C(C)C)C(=O)N[C@@H](CCCN=C(N)N)C(=O)N[C@@H](C)C(=O)N[C@@H](CC(C)C)C(=O)N[C@@H](CCSC)C(=O)N[C@@H](CCCN=C(N)N)C(=O)N[C@@H](CCSC)C(=O)N[C@@H](Cc1ccccc1)C(=O)N[C@@H](C)C(=O)N[C@@H](CCCN=C(N)N)C(=O)N[C@@H](CC(C)C)C(=O)N[C@H](C(=O)NCC(=O)O)C(C)C [GSVIRALMRMFARLVG],MIC,[24],36 µM
same,MIC,[25],≥ 36 µM
same,MIC,[26],≥ 36 µM
same,MIC,[27],4.5 µM
same,MIC,[28],≥ 36 µM
same,MIC,[29],4.5 µM
same,MIC,[30],4.5 µM
same,MIC,[19],36 µM
CC[C@H](C)[C@H](NC(=O)[C@H](C)NC(=O)[C@H](CC(N)=O)NC(=O)[C@@H]1CCCN1C(=O)[C@@H](NC(=O)[C@H](CC(C)C)NC(=O)[C@H](CO)NC(=O)[C@H](Cc1ccccc1)NC(=O)[C@H](CC(C)C)NC(=O)[C@@H](N)Cc1ccccc1)[C@@H](C)CC)C(=O)N[C@@H](CO)C(=O)NCC(=O)N[C@@H](CC(C)C)C(=O)N[C@@H](CC(C)C)C(=O)N[C@@H](CO)C(=O)N[C@@H](C)C(=O)N[C@@H](Cc1ccccc1)C(=O)N[C@H](C=O)CCCCN [FLFSLIPNAISGLLSAFK],MIC,[31],≥ 250 µM
same,MIC,[32],8 µM
same,MIC,[33],16 µM
CC(C)C[C@H](NC(=O)[C@H](CCCCN)NC(=O)[C@H](CCCCN)NC(=O)[C@H](CC(C)C)NC(=O)[C@H](CC(C)C)NC(=O)[C@H](CCCCN)NC(=O)[C@H](CCCCN)NC(=O)[C@H](CC(C)C)NC(=O)[C@H](CC(C)C)NC(=O)[C@@H]1CCCN1C(=O)[C@H](CCCCN)NC(=O)[C@H](CCCCN)NC(=O)[C@H](CC(C)C)NC(=O)[C@H](CC(C)C)NC(=O)[C@H](CCCCN)NC(=O)[C@@H](N)CCCCN)C(N)=O [KKLLKKPLLKKLLKKL],MIC,[17],3.13 µM
same,MIC,[18],1.56 µM
same,MIC,[19],1.56 µM and > 0.78 µM
CSCC[C@H](NC(=O)[C@H](CC(C)C)NC(=O)[C@H](CC(C)C)NC(=O)[C@H](CCCCN)NC(=O)[C@H](CCCN=C(N)N)NC(=O)[C@H](CCC(=O)O)NC(=O)[C@H](CC(C)C)NC(=O)[C@H](CC(C)C)NC(=O)[C@H](CO)NC(=O)[C@@H](N)CCSC)C(=O)N[C@@H](Cc1cnc[nH]1)C(=O)N[C@@H](Cc1ccccc1)C(=O)N[C@@H](CC(C)C)C(=O)N[C@@H](CCCN=C(N)N)C(=O)N[C@H](C(=O)O)C(C)C [MSLLERKLLMHFLRV],MIC,[25],≥ 33.9 µM
same,MIC,[26],≥ 67.9 µM
same,MIC,[27],8.48 µM
same,MIC,[28],≥ 33.9 µM
same,MIC,[29],8.48 µM
same,MIC,[30],4.24 µM
same,MIC,[19],8.48 µM
CC(C)[C@H](N)C(=O)N[C@@H](CCCCN)C(=O)N[C@@H](CCCN=C(N)N)C(=O)N[C@@H](Cc1c[nH]c2ccccc12)C(=O)N[C@@H](CCCCN)C(=O)N[C@@H](CCCCN)C(=O)N[C@@H](Cc1c[nH]c2ccccc12)C(=O)N[C@@H](CCCCN)C(=O)N[C@@H](CCCN=C(N)N)C(=O)N[C@@H](CCCCN)C(=O)N[C@@H](Cc1c[nH]c2ccccc12)C(=O)N[C@@H](CCCCN)C(=O)N[C@@H](CCCCN)C(=O)N[C@@H](Cc1c[nH]c2ccccc12)C(=O)N[C@H](C(N)=O)C(C)C [VKRWKKWKRKWKKWV],MIC,[34],1.6 µM
same,MIC,[8],2.8 µM
same,MIC,[35],2.8 µM
same,MIC,[36],2.8 µM
